Assay results taken from patent publication US8802665B2, “Pyrrolidine derivatives” (Hoffman-La Roche Inc., priority 2012, dated 2014).

Molecular target: human Cat S (Homo sapiens (Human), UniProt P25774)
Assay: Cathepsin enzyme inhibition assay (fluorogenic peptide substrate cleavage)
Type: biochemical
Settings: human Cathepsin S 1 nM, substrate Z-Val-Val-Arg-AMC 20 μM, pH 6.5; read-out: Ic50 CatS: human
Procedure: Cathepsin Enzyme Inhibition Assay
Enzyme activity is measured by observing the increase in fluorescence intensity caused by cleavage of a peptide substrate containing a fluorophore whose emission is quenched in the intact peptide. • Assay buffer: 100 mM potassium phosphate pH 6.5, EDTA-Na 5 mM, Triton X-100 0.001%, DTT 5 mM. • Enzymes (all at 1 nM): human and mouse Cathepsin S, Cat K, Cat B, Cat L. • Substrate (20 μM): Z-Val-Val-Arg-AMC, except for Cat K which uses Z-Leu-Arg-AMC (both from Bachem). • Z=Benzyloxycarbonyl. • AMC=7-Amino-4-Methyl-Coumarin. • DTT=dithiothreitol. • Final volume: 100 μL. • Excitation 360 nm, Emission 465 nm.
Enzyme is added to the substance dilutions in 96-well microtitre plates and the reaction is started with substrate. Fluorescence emission is measured over 20 minutes, during which time a linear increase is observed in the absence of inhibitor. IC50 are calculated by standard methods.
Inhibition of human Cat S, mouse Cat S, human Cat K, human Cat B, human Cat L and mouse Cat L have been measured separately. The results obtained for human Cat S for representative compounds of the invention are expressed in the following table in μM.

Sequence of human Cat S (P25774 115-331): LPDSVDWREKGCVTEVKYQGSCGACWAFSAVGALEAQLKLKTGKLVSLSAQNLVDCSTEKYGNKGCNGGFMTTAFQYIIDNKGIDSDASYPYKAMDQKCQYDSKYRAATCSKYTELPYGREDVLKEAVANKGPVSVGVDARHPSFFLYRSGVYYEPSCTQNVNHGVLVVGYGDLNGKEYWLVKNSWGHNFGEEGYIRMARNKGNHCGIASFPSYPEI

SMILES | IC50 [nM]
CCOC(=O)N1CCC(N2CCC2C(=O)N2C[C@H](S(=O)(=O)c3ccccc3OC)C[C@H]2C(=O)NC2(C#N)CC2)CC1 (stereo partly drawn) [Example 21, Ethyl 4-(2-((2S,4R)-2-(1-cyanocyclopropylcarbamoyl)-4-(2-methoxyphenylsulfonyl)pyrrolidine-1-carbonyl)azetidin-1-yl)piperidine-1-carboxylate] | 9.2
CCOC(=O)N1CCC(N2CCC2C(=O)N2C[C@H](S(=O)(=O)c3ccc(Cl)cc3)C[C@H]2C(=O)NC2(C#N)CC2)CC1 (stereo partly drawn) [Example 22, Ethyl 4-(2-((2S,4R)-4-(4-chlorophenylsulfonyl)-2-(1-cyanocyclopropylcarbamoyl)pyrrolidine-1-carbonyl)azetidin-1-yl)piperidine-1-carboxylate] | 2.8
CCOC(=O)N1CCC(N2CCC2C(=O)N2C[C@H](S(=O)(=O)c3ccccc3OC(F)(F)F)C[C@H]2C(=O)NC2(C#N)CC2)CC1 (stereo partly drawn) [Example 23, Ethyl 4-(2-((2S,4R)-2-(1-cyanocyclopropylcarbamoyl)-4-(2-(trifluoromethoxy)phenylsulfonyl)pyrrolidine-1-carbonyl)azetidin-1-yl)piperidine-1-carboxylate] | 4.1
CCOC(=O)N1CCC(N2CCC2C(=O)N2C[C@H](S(=O)(=O)c3cccc(C(F)(F)F)c3)C[C@H]2C(=O)NC2(C#N)CC2)CC1 (stereo partly drawn) [Example 24, Ethyl 4-(2-((2S,4R)-2-(1-cyanocyclopropylcarbamoyl)-4-(3-(trifluoromethyl)phenylsulfonyl)pyrrolidine-1-carbonyl)azetidin-1-yl)piperidine-1-carboxylate] | 1.6
CC(C)(C)OC(=O)N1CCN(C2(C(=O)N3C[C@H](S(=O)(=O)c4ccccc4Cl)C[C@H]3C(=O)NC3(C#N)CC3)CC2)CC1 [Example 29, tert-Butyl 4-(1-((2S,4R)-4-(2-chlorophenylsulfonyl)-2-(1-cyanocyclopropylcarbamoyl)pyrrolidine-1-carbonyl)cyclopropyl)piperazine-1-carboxylate] | 2.3
N#CC1(NC(=O)[C@@H]2C[C@@H](S(=O)(=O)c3ccccc3Cl)CN2C(=O)C2(N3CCNCC3)CC2)CC1 [Example 30, (2S,4R)-4-(2-Chlorophenylsulfonyl)-N-(1-cyanocyclopropyl)-1-(1-(piperazin-1-yl)cyclopropanecarbonyl)pyrrolidine-2-carboxamide] | 4.2
CC(=O)N1CCN(C2(C(=O)N3C[C@H](S(=O)(=O)c4ccccc4Cl)C[C@H]3C(=O)NC3(C#N)CC3)CC2)CC1 [Example 31, (2S,4R)-1-(1-(4-Acetylpiperazin-1-yl)cyclopropanecarbonyl)-4-(2-chlorophenylsulfonyl)-N-(1-cyanocyclopropyl)pyrrolidine-2-carboxamide] | 2.2
CS(=O)(=O)N1CCN(C2(C(=O)N3C[C@H](S(=O)(=O)c4ccccc4Cl)C[C@H]3C(=O)NC3(C#N)CC3)CC2)CC1 [Example 32, (2S,4R)-4-(2-Chlorophenylsulfonyl)-N-(1-cyanocyclopropyl)-1-(1-(4-(methylsulfonyl)piperazin-1-yl)cyclopropanecarbonyl)pyrrolidine-2-carboxamide] | 2.5
COC(=O)N1CCN(C2(C(=O)N3C[C@H](S(=O)(=O)c4ccccc4Cl)C[C@H]3C(=O)NC3(C#N)CC3)CC2)CC1 [Example 33, Methyl 4-(1-((2S,4R)-4-(2-chlorophenylsulfonyl)-2-(1-cyanocyclopropylcarbamoyl)pyrrolidine-1-carbonyl)cyclopropyl)piperazine-1-carboxylate] | 2.6
N#CC1(NC(=O)[C@@H]2C[C@@H](S(=O)(=O)c3ccccc3Cl)CN2C(=O)C2(N3CCN(C=O)CC3)CC2)CC1 [Example 34, (2S,4R)-4-(2-Chlorophenylsulfonyl)-N-(1-cyanocyclopropyl)-1-(1-(4-formylpiperazin-1-yl)cyclopropanecarbonyl)pyrrolidine-2-carboxamide] | 1.4
N#CC1(NC(=O)[C@@H]2C[C@@H](S(=O)(=O)c3ccccc3Cl)CN2C(=O)C2(N3CCN(C(=O)C(F)(F)F)CC3)CC2)CC1 [Example 35, (2S,4R)-4-(2-Chlorophenylsulfonyl)-N-(1-cyanocyclopropyl)-1-(1-(4-(2,2,2-trifluoroacetyl)piperazin-1-yl)cyclopropanecarbonyl)pyrrolidine-2-carboxamide] | 3.7
CCN1CCN(C2(C(=O)N3C[C@H](S(=O)(=O)c4ccccc4Cl)C[C@H]3C(=O)NC3(C#N)CC3)CC2)CC1 [Example 36, (2S,4R)-4-(2-Chlorophenylsulfonyl)-N-(1-cyanocyclopropyl)-1-(1-(4-ethylpiperazin-1-yl)cyclopropanecarbonyl)pyrrolidine-2-carboxamide] | 6.2
N#CC1(NC(=O)[C@@H]2C[C@@H](S(=O)(=O)c3ccccc3Cl)CN2C(=O)C2(N3CCC(c4ccccc4)CC3)CC2)CC1 [Example 37, (2S,4R)-4-(2-chlorophenylsulfonyl)-N-(1-cyanocyclopropyl)-1-(1-(4-phenylpiperidin-1-yl)cyclopropanecarbonyl)pyrrolidine-2-carboxamide] | 1.2

Further molecules by falling IC50, results first:

IC50 [nM] | SMILES
1.2 | N#CC1(NC(=O)[C@@H]2C[C@@H](S(=O)(=O)c3ccccc3Cl)CN2C(=O)C2(N3CCCC3)CC2)CC1 [Example 28, (2S,4R)-4-(2-Chlorophenylsulfonyl)-N-(1-cyanocyclopropyl)-1-(1-(pyrrolidin-1-yl)cyclopropanecarbonyl)pyrrolidine-2-carboxamide]
0.9 | CC1CCCCN1C1(C(=O)N2C[C@H](S(=O)(=O)c3ccccc3Cl)C[C@H]2C(=O)NC2(C#N)CC2)CC1 (stereo partly drawn) [Example 41, (2S,4R)-4-(2-Chlorophenylsulfonyl)-N-(1-cyanocyclopropyl)-1-(1-(2-methylpiperidin-1-yl)cyclopropanecarbonyl)pyrrolidine-2-carboxamide]
0.8 | N#CC1(NC(=O)[C@@H]2C[C@@H](S(=O)(=O)c3ccccc3Cl)CN2C(=O)C2(N3CCOCC3)CC2)CC1 [Example 39, (2S,4R)-4-(2-Chlorophenylsulfonyl)-N-(1-cyanocyclopropyl)-1-(1-morpholino-cyclopropanecarbonyl)pyrrolidine-2-carboxamide]
0.8 | N#CC1(NC(=O)[C@@H]2C[C@@H](S(=O)(=O)c3ccccc3OC(F)(F)F)CN2C(=O)C2(N3CCCCC3)CC2)CC1 [Example 45, (2S,4R)-N-(1-Cyanocyclopropyl)-1-(1-(piperidin-1-yl)cyclopropanecarbonyl)-4-(2-(trifluoromethoxy)phenylsulfonyl)pyrrolidine-2-carboxamide]
0.5 | N#CC1(NC(=O)[C@@H]2C[C@@H](S(=O)(=O)c3ccccc3Cl)CN2C(=O)C2(N3CCCCC3)CC2)CC1 [Example 25, (2S,4R)-4-(2-Chlorophenylsulfonyl)-N-(1-cyanocyclopropyl)-1-(1-(piperidin-1-yl)cyclopropanecarbonyl)pyrrolidine-2-carboxamide]
0.5 | CC1CCN(C2(C(=O)N3C[C@H](S(=O)(=O)c4ccccc4Cl)C[C@H]3C(=O)NC3(C#N)CC3)CC2)CC1 [Example 38, (2S,4R)-4-(2-chlorophenylsulfonyl)-N-(1-cyanocyclopropyl)-1-(1-(4-methylpiperidin-1-yl)cyclopropanecarbonyl)pyrrolidine-2-carboxamide]
0.5 | N#CC1(NC(=O)[C@@H]2C[C@@H](S(=O)(=O)c3ccccc3Cl)CN2C(=O)C2(N3CCCCCC3)CC2)CC1 [Example 40, (2S,4R)-1-(1-(Azepan-1-yl)cyclopropanecarbonyl)-4-(2-chlorophenylsulfonyl)-N-(1-cyanocyclopropyl)pyrrolidine-2-carboxamide]
0.4 | CC1CCCN(C2(C(=O)N3C[C@H](S(=O)(=O)c4ccccc4Cl)C[C@H]3C(=O)NC3(C#N)CC3)CC2)C1 (stereo partly drawn) [Example 26, (2S,4R)-4-(2-Chlorophenylsulfonyl)-N-(1-cyanocyclopropyl)-1-(1-(3-methylpiperidin-1-yl)cyclopropanecarbonyl)pyrrolidine-2-carboxamide]
0.4 | N#CC1(NC(=O)[C@@H]2C[C@@H](S(=O)(=O)c3ccc(F)cc3Cl)CN2C(=O)C2(N3CCCCC3)CC2)CC1 [Example 42, (2S,4R)-4-(2-Chloro-4-fluorophenylsulfonyl)-N-(1-cyanocyclopropyl)-1-(1-(piperidin-1-yl)cyclopropanecarbonyl)pyrrolidine-2-carboxamide]
0.4 | Cc1ccc(S(=O)(=O)[C@@H]2C[C@@H](C(=O)NC3(C#N)CC3)N(C(=O)C3(N4CCCCC4)CC3)C2)cc1 [Example 44, (2S,4R)-N-(1-Cyanocyclopropyl)-1-(1-(piperidin-1-yl)cyclopropanecarbonyl)-4-tosylpyrrolidine-2-carboxamide]
0.3 | N#CC1(NC(=O)[C@@H]2C[C@@H](S(=O)(=O)c3ccccc3Cl)CN2C(=O)C2(N3CCSCC3)CC2)CC1 [Example 27, (2S,4R)-4-(2-Chlorophenylsulfonyl)-N-(1-cyanocyclopropyl)-1-(1-thiomorpholinocyclopropanecarbonyl)pyrrolidine-2-carboxamide]
0.3 | N#CC1(NC(=O)[C@@H]2C[C@@H](S(=O)(=O)c3cccc(Cl)c3)CN2C(=O)C2(N3CCCCC3)CC2)CC1 [Example 43, (2S,4R)-4-(3-Chlorophenylsulfonyl)-N-(1-cyanocyclopropyl)-1-(1-(piperidin-1-yl)cyclopropanecarbonyl)pyrrolidine-2-carboxamide]
